Experimental findings from ChEMBL document CHEMBL1201862, “PubChem BioAssay data set” (2004) are described below.

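48-hour exposure; five concentrations; linearly interpolated endpoints. GI50 = concentration required for 50% inhibition of growth.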 Activity calls are given as the source filed them. Rule as the data show it: active = GI50 up to about 1.1 µM and inactive = higher.

Test systems include A498; CAKI-1; COLO 205; HCT-15; Hs-578T; MDA-MB-435; NCI-H226; NCI-H23; NCI-H522; NCI/ADR-RES; OVCAR-5; OVCAR-8; PC-3; SF-539; SK-MEL-28; SK-MEL-2; SK-OV-3; SNB-75; SW-620; UACC-62.
What all share (experiment): growth of human tumour cells (NCI), 48 h

`COc1ccc(C2CC(c3c(C)nn(-c4ccccc4)c3-c3ccc(C)cc3O)=NN2c2ccccc2)cc1` (stereo not given): the GI50 is > 100 µM (inactive) in the assay with A498; 38.9 µM (inactive) in the assay with CAKI-1; 12.7 µM (inactive) in the assay on COLO 205; 7.71 µM in the assay on HCT-15; 10.4 µM (inactive) in the assay on Hs-578T; 15 µM (inactive) in the assay with MDA-MB-435. In addition, the GI50 in the assay with NCI-H226 was > 24 µM (inactive); with NCI-H23 it was 3.79 µM (inactive); in the assay with NCI-H522, 24.8 µM (inactive); in the assay on NCI/ADR-RES, 21.9 µM (inactive); in the assay on OVCAR-5 it was > 35.1 µM (inactive); with OVCAR-8, 20.4 µM (inactive). Moreover, the GI50 with PC-3 is 3.78 µM (inactive); in the assay on SF-539 it was > 78.5 µM (inactive); with SK-MEL-28, > 89.3 µM (inactive); with SK-MEL-2, 14.1 µM (inactive); with SK-OV-3, > 100 µM (inactive); in the assay on SNB-75 it was 5.04 µM (inactive). Further, the GI50 in the assay with SW-620 is 20.5 µM (inactive); with UACC-62, 23 µM (inactive).

For `CCCCCCc1cc2cc(C(=O)Nc3ccccc3)c(=N)oc2cc1O`, the GI50 was 26.2 µM (inactive) with A498; 4.58 µM (inactive) in the assay with CAKI-1; 38.4 µM (inactive) in the assay on COLO 205; 3.45 µM in the assay on HCT-15; 3.21 µM (inactive) in the assay on Hs-578T; 3.53 µM (inactive) in the assay on MDA-MB-435. Further, the GI50 is > 25.6 µM (inactive) in the assay on NCI-H226; 2.36 µM (inactive) with NCI-H23; 1.94 µM (inactive) with NCI-H522; 3.27 µM (inactive) in the assay with NCI/ADR-RES; > 83.6 µM (inactive) in the assay on OVCAR-5; 3.93 µM (inactive) in the assay with OVCAR-8. Besides, the GI50 in the assay with PC-3 is 2.86 µM (inactive); in the assay with SF-539, 4.49 µM (inactive); with SK-MEL-28, 6.87 µM (inactive); with SK-MEL-2 it was 2.45 µM (inactive); in the assay on SK-OV-3, 3.34 µM (inactive); with SNB-75 it was > 23 µM (inactive). Besides, the GI50 with SW-620 was 3.97 µM (inactive); in the assay with UACC-62 it was 2.26 µM (inactive).

`Nc1nc(NCc2ccccc2)cc(NCc2ccccc2)n1`: the GI50 with A498 is 0.668 µM (active); in the assay with CAKI-1 it was 2.64 µM (inactive); in the assay on COLO 205, 2.97 µM (inactive); in the assay with HCT-15, 3.52 µM; in the assay with Hs-578T, 2.86 µM (inactive); in the assay with MDA-MB-435, 2.48 µM (inactive). For the same compound, the GI50 in the assay with NCI-H226 was 7.5 µM (inactive); with NCI-H23 it was 5 µM (inactive); with NCI-H522 it was 4.24 µM (inactive); in the assay with NCI/ADR-RES, 3.23 µM (inactive); with OVCAR-5 it was 16.9 µM (inactive); with OVCAR-8, 4.11 µM (inactive). For the same compound, the GI50 in the assay on PC-3 is 3.64 µM (inactive); in the assay on SF-539, 3.45 µM (inactive); in the assay with SK-MEL-28, 12 µM (inactive); with SK-MEL-2, 8.81 µM (inactive); with SK-OV-3, 9.08 µM (inactive); in the assay on SNB-75 it was 3.23 µM (inactive). For the same compound, the figures for the GI50 with SW-620 and with UACC-62 were 5.21 µM (inactive) and 3.67 µM (inactive), respectively.

Turning to `C=CCOc1ccc(C2(O)c3ccccc3C3=NCCCN32)cc1` (stereo not given), the GI50 was > 100 µM (inactive) with A498; > 62.8 µM (inactive) in the assay with CAKI-1; 19.9 µM (inactive) with COLO 205; over 62.2 µM in the assay on HCT-15; > 73.8 µM (inactive) in the assay with Hs-578T; 30.1 µM (inactive) in the assay with MDA-MB-435. Besides, the GI50 was > 77.1 µM (inactive) in the assay with NCI-H226; 60.1 µM (inactive) in the assay with NCI-H23; 21.2 µM (inactive) in the assay with NCI-H522; > 100 µM (inactive) in the assay with NCI/ADR-RES; 72.4 µM (inactive) in the assay with OVCAR-5; > 100 µM (inactive) in the assay on OVCAR-8. Besides, the GI50 is 33.5 µM (inactive) in the assay with PC-3; 56 µM (inactive) in the assay with SF-539; 24.5 µM (inactive) with SK-MEL-28; 20.3 µM (inactive) in the assay with SK-MEL-2; > 95.9 µM (inactive) with SK-OV-3; 32 µM (inactive) in the assay on SNB-75. Besides, the results for the GI50 with SW-620 and with UACC-62 were 44 µM (inactive) and 25.7 µM (inactive), respectively.
